Experimental data taken from patent publication US6444872B1, “Large animal model of invasive pulmonary aspergillosis in an immunocompromised host” (priority 1999, dated 2002).

Assays:
Aspergillus fumigatus = experiment: Beagle model of invasive pulmonary aspergillosis in an immunocompromised host (TBI + steroids, bronchoscopic spore inoculation); format: in vivo
Source text: 1. The “Right” Animal: While choosing an animal the inventors had to consider that a human/clinical mold infection, such as an Aspergillus infection, usually begins as a localized infection and not as a widespread and diffuse pulmonary infection. To be able to reproducibly inoculate a specified dose of an infectious agent in a limited, defined part of the airways the inventors must have easy access to a particular part of the pulmonary tree. This meant that a large animal, such as dog, pig, sheep or monkey, rather than a rodent or lagomorph should be considered. The beagle, which is accepted by both the NCI and the FDA for safety studies of pharmaceutically active agents prior to entering clinical trials, was favored. This dog is easily accessible from several commercial breeders, and in addition to the selected experimental dogs one could conveniently house extra animal's for donation of both platelets and red cells to be transfused as needed during the supportive care phase of the experiments, i.e. after the mold administration.
2. Immunosuppression: For immunosuppression the inventors chose total body irradiation (TBI) with an X-ray (Cobalt) (XRT) source, administered with the animal under general anesthesia in a specially constructed box to obtain uniform radiation exposure. […] Further, the XRT dose can be calculated such that it gives a window of fairly deep immunosuppression sustained for 3-5 weeks, which should be sufficient for the intended purpose. The XRT was followed with daily oral prednisolone administration to further suppress T-lymphocyte and macrophage function and enhance spreading the infection.
3. Mold Species: More than 90% of human clinical Aspergillus infections are a result of Aspergillus fumigatus infection.
4. Mold Dose: To standardize the mold dosage, the inventors prepared batches of Aspergillus spores that were mixed in agarose and stirred down vigorously in mineral oil to obtain a suspension of spores encapsulated in small agarose beads (the approximate average bead diameter was 20 μm). After washing the beads in 0.5% deoxycholate, they were mixed with glycerol prior to cryopreservation and storage at −70° C. The use of agar beads and other encapsulation methods are also contemplated.
5. Mold Administration: The human clinical infection usually starts as a localized airway infection either in the sinuses or in a part of one lung, and not as a generalized pulmonary infection. The inventors decided to utilize a pediatric bronchoscope to safely and reproducibly introduce the Aspergillus spores in the intermediary (lower) right lung lobe. After standardization of the dose, 1×10^6 spores encapsulated in agarose beads and resuspended in NS were infused at each occasion.
6. Time of Mold Administration: In most human patients, Aspergillus infections occur at a time of leukopenia and profound immunosuppression. The time to develop leukopenia after TBI was very reproducible in the beagles. At day 10-14 days after XRT, when the animal's absolute white blood cell count falls below about 500 per μL (neutrophil count <400 per μL), the mold spore administration was performed. The WBC remain at about <500 per μL till day 25-30 after TBI, at which time the count recovered fairly rapidly in animal's that had not been inoculated with Aspergillus spores, or in beagles who had been inoculated with a dose that was too low to yield progressive infection.
7. Supportive Care: The first few animal's died from a superimposed secondary bacterial infection rather than from the mold infection itself In addition, there were bleeding complications when the dogs' platelet count fell below 10,000 per μL. The inventors therefore decided to utilize prophylactic oral (broad-spectrum) antibiotics and “prophylactic” platelet transfusions. […]

[1] = in vivo; cited from earlier work
[2] = human, in vivo; cited from earlier work
[3] = the two dogs that rejected the infection

C[C@@H]1C/C=C/C=C/C=C/C=C/[C@H](O[C@@H]2O[C@H](C)[C@@H](O)[C@H](N)[C@@H]2O)C[C@@H]2O[C@](O)(C[C@@H](O)C[C@H]3O[C@@H]3/C=C/C(=O)O1)C[C@H](O)[C@H]2C(=O)O [Natamycin]
outcome of infection (Aspergillus fumigatus; after a 16-day cycle of daily Natamycin treatments): two animal's rejected the infection | life span after fungal inoculation (Aspergillus fumigatus; one animal, expected life span nine days, daily intravenous Natamycin): 17 days | Pneumonia (Aspergillus fumigatus; single dog, 1 x 10^6 spores, TBI 3.0 Gy, steroid 30/10 mg, platelet/antibiotic support): Yes | Complications (outcome) (Aspergillus fumigatus; single dog, survived pneumonia 4 weeks post therapy): Dog survived | necropsy finding (Aspergillus fumigatus; [3]): only signs of healing | time free from resurgence of the mold infection post completion of drug treatment (Aspergillus fumigatus; [3]): one | extended life as compared to untreated animals (Aspergillus fumigatus; therapy instituted a day after Aspergillus inoculum, last 3 beagles, 3.0 Gy TBI): Natamycin extended life by 80% as compared to untreated animals

CC[C@]1(O)C[C@@H]2CN(CCc3c([nH]c4ccccc34)[C@@](C(=O)OC)(c3cc4c(cc3OC)N(C)[C@H]3[C@@](O)(C(=O)OC)[C@H](OC(C)=O)[C@]5(CC)C=CCN6CC[C@]43[C@@H]65)C2)C1 [Vinblastine]
administered dose recovered in the feces after biliary excretion [1]: about 10% | dose excreted intact into the urine [1]: Approximately 15%

C[C@@H]1[C@H](O)[C@@H](C)/C=C/C=C/C=C/C=C/C=C/C=C/C=C/[C@H](O[C@@H]2O[C@H](C)[C@@H](O)[C@H](N)[C@@H]2O)C[C@@H]2O[C@](O)(C[C@@H](O)C[C@@H](O)[C@H](O)CC[C@@H](O)C[C@@H](O)CC(=O)O[C@H]1C)C[C@H](O)[C@H]2C(=O)O [AMB, Amphotericin B]
cases with nephrotoxicity [2]: > 75%
